Reference: patent publication US20230310309A1, “INJECTABLE DEPOT COMPOSITIONS FOR THE DELIVERY OF ANTIVIRAL AGENTS” (Merck Sharp & Dohme LLC, priority 2020, published 2023)
≈ marks a conversion by molar mass, not a printed value.

Experiment: solubility of islatravir in PBS
Assay type: physicochemical
Details: phosphate buffered saline (PBS), aqueous buffer, 37° C.

solubility: 1350 µg/mL (≈ 4.6 mM)
SMILES: C#C[C@]1(CO)O[C@@H](n2cnc3c(N)nc(F)nc32)C[C@@H]1O [islatravir, 4′-ethynyl-2-fluoro-2′-deoxyadenosine]
